Values joined by “and” are separate entries in the source; they are usually repeats but may differ in a detail not shown here. Equal entries are not always repeated.
Columns and labels:
[1] = test system: BL/6 mice; assay: Fundus photos and fluorescein angiography after systemic (i.p.) administration; format: in vivo, mouse; conditions: adult mice, 1 month following 5 consecutive i.p. injections of 40 or 80 mg/kg
Description: protocol, the sections were rinsed three times with PBS for 2 minutes. Images were captured at high magnification (20X) with Zeiss fluorescent microscope.
Flash scotopic ERGs. All procedures were performed under dim red light. Mice were dark adapted overnight, anesthetized with ketamine (50 mg/kg) and xylazine (5mg/kg) and pupils were dilated with a topical drop of tropicamide (1%). Scotopic ERG responses were measured using the Celeris ERG stimulator (Diagnosys, Lowell, MA) at flash intensities of 0.025, 0.25, 2.5, 7.96, and 79.06 cd/s/m2. ERGs were measured simultaneously from both eyes with a ground electrode placed into the forehead between the eyes and a reference electrode into the hip.
Fluorescein angiography in mice. […]
vascular permeability, experimental animals were treated with 5 consecutive daily IP injections […]
On day 30, mice were anesthetized using intramuscular injection with ketamine (50 mg/kg) and xylazine (5mg/kg). […] Fluorescein leakage manifests as indistinct vascular borders progressing to diffusely hazy fluorescence. Fluorescein leakage was compared between different groups by quantifying the fluorescence intensities collected after 1-, 2-, and 3-minutes following fluorescein injection using the ImageJ software.

[2] = biological target: T1, HIF-1α (Mus musculus, UniProt Q61221); assay: Western blot of HIF-1α protein accumulation in retina of OIR mice (P13); format: in vivo
T1 construct: from tissue; host or cells: retina of C57BL/6 OIR pups
Description: Immunoblot assays. Cells, neurosensory retina, and D120 retinal organoid lysates were subjected to 4–15% gradient SDS/PAGE (Invitrogen). Immunoblot (Western blot or WB) assays were performed as previously described (1).
Reverse transcription and quantitative real-time PCR. Total RNA was isolated from cultured cells or retinas with PureLinkTM RNA Mini Kit (Invitrogen #12183025), and cDNA was prepared with MuLV Reverse Transcriptase (Applied Biosystems). Quantitative real-time PCR was performed with Power SYBR Green PCR Master Mix (Applied Biosystems) and MyiQ Real-Time PCR Detection System (Bio-Rad). Normalization was done using cyclophilin A for mouse tissue and human cell lines. Primers are listed in Supplemental Table 2.
Angiogenesis array. […]
cDNA was prepared with QuantiTect® Reverse Transcription Kit (Qiagen, Cat# 205311). […]
4444554). […] The data were analyzed by using HPRT1 as endogenous […]
HUVEC cells, Euclidean distance was used to quantify the difference in qPCR screening. The Euclidean distance was calculated using “dist” function from R’s default stat library that measures the distance between 2 vectors (i.e., total qPCR expression values in control and treatment). […]
STZ-induced diabetes mouse model. […] Blood glucose was measured on experimental day 28 after 16 hours fasting and mice with blood glucose level > 250 mg/dL were considered […]

[3] = test system: MIO-M1 cells; assay: qPCR of VEGF and ANGPTL4 mRNA in hypoxic MIO-M1 cells; format: cell-based, human; conditions: for Angptl4 mRNA / Vegfa mRNA: MIO-M1, 1%O2+32-134D 10μM, 20%O2 about 1, replicates, Figure 7H
Description: MIO-M1, HUVECs, and ARPE19 cells were cultured in DMEM with 10% (vol/vol) FBS (Quality Biological) and 1% penicillin/streptomycin (Cellgro). A hypoxic chamber (Coy Laboratory Product Inc.; Two Glove Model) with 5% CO2, 94% N2, and 1% O2 gas concentration at 37°C was used to culture hypoxic cells. The control cells were cultured in an incubator maintained at 37°C, with 21% O2 and 5% CO2. […] Aflibercept was obtained from the Johns Hopkins University Pharmacy. […]
Reverse transcription and quantitative real-time PCR. Total RNA was isolated from cultured cells or retinas with PureLinkTM RNA Mini Kit (Invitrogen #12183025), and cDNA was prepared with MuLV Reverse Transcriptase (Applied Biosystems). Quantitative real-time PCR was performed with Power SYBR Green PCR Master Mix (Applied Biosystems) and MyiQ Real-Time PCR Detection System (Bio-Rad). Normalization was done using cyclophilin A for mouse tissue and human cell lines. Primers are listed in Supplemental Table 2. […]

T1 sequence (Q61221 whole entry): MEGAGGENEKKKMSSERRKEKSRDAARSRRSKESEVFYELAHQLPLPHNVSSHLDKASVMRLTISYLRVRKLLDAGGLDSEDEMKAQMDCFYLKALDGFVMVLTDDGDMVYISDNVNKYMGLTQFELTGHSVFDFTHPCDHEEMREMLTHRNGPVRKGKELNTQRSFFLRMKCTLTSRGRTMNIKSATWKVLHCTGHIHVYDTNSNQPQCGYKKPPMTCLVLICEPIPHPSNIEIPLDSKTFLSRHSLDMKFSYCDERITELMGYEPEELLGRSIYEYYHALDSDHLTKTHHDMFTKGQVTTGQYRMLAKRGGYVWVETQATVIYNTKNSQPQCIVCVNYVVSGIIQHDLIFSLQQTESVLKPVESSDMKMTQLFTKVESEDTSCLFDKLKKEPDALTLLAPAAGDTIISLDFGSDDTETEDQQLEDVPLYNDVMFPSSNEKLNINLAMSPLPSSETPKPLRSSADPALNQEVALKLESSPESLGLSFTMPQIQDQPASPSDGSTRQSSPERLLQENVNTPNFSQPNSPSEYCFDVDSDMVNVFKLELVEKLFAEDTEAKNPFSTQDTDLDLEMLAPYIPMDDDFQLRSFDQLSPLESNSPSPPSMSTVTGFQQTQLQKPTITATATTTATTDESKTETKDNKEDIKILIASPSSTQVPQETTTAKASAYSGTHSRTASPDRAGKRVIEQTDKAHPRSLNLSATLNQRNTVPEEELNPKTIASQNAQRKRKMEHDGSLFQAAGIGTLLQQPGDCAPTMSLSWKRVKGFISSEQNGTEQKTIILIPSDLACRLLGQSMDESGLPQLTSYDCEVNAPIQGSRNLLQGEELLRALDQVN

Q: Which results are given for `Brc1ccc2c(-c3csc(-c4c[nH]c5c(Br)cccc45)n3)c[nH]c2c1` [32-134D, 4-(6-bromo-1H-indol-3-yl)-2-(7-bromo-1H-indol-3-yl)thiazole]?
A: fundus and fluorescein angiogram [1]: normal-appearing fundus without evidence of retinal vascular injury or leakage; HIF-1α protein accumulation in OIR mice ([2]; single i.p. injection 20 mg/kg, P13): reduction; accumulation of HIF-1α in OIR mice ([2]; single intraocular injection 14 ng at P12, P13): effectively reduced; logIC50 ([3]; Figure 12B, [Inhibitor] vs. response (three parameters), best-fit value): 0.5455; Angptl4 mRNA ([3]; 2hrs): 0.3563 and 0.4262 and 0.3782; Vegfa mRNA ([3]; 2hrs): 1.026 and 1.073 and 1.079; Angptl4 mRNA ([3]; 4hrs): 1.791 and 1.687 and 2.018; Vegfa mRNA ([3]; 4hrs): 1.517 and 1.493 and 1.343; Angptl4 mRNA ([3]; 8hrs): 1.385 and 1.132 and 0.993; Vegfa mRNA ([3]; 8hrs): 2.421 and 2.295 and 2.311

From article PMC10313368 (The Journal of Clinical Investigation, 2023)
